We go through eight compounds from PubChem BioAssay (NCI).

Where “and” joins values, the source holds several entries; their conditions need not be identical. Equal entries are not always repeated.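 Each compound was tested at five concentrations against cells in 96-well plates for 48 hours. GI50 marks 50% less growth. TGI denotes the concentration required for complete inhibition of growth.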

Test systems include HT29 colon; PC-3 prostate; LOX IMVI melanoma; HCT-15 colon; NCI-H522 lung; T-47D breast; SW-620 colon; MDA-MB-231 breast; MOLT-4 leukemia; HS 578T breast.
Holding throughout (assay): NCI anticancer screen, dose series, 48 h

For `CCOC(=O)c1cc(-c2ccccc2)[nH]c1N/N=C/c1ccc(Cl)cc1`, the GI50 in the assay on HT29 colon is 37.3 µM; in the assay with PC-3 prostate, 21.8 µM; with LOX IMVI melanoma, 62.1 µM; with HCT-15 colon, 49.3 µM; in the assay on NCI-H522 lung, 89.4 µM; with T-47D breast, 45.5 µM. Further, the GI50 with SW-620 colon is > 100 µM; in the assay on MDA-MB-231 breast, > 100 µM; with MOLT-4 leukemia it was 16.8 µM; with HS 578T breast, 77.7 µM. Moreover, the TGI in the assay on HT29 colon, with PC-3 prostate, in the assay with LOX IMVI melanoma, in the assay on HCT-15 colon, in the assay on NCI-H522 lung and in the assay with T-47D breast was > 100 µM each time. In addition, the TGI in the assay on SW-620 colon, in the assay on MDA-MB-231 breast, in the assay with MOLT-4 leukemia and in the assay on HS 578T breast was > 100 µM in each case.
Regarding `C=C1C(=O)O[C@H]2[C@H]1CC/C(COC(=O)C(C)c1ccc(CC(C)C)cc1)=C\CC[C@@]1(C)O[C@@H]21` (stereo not given in full), the GI50 in the assay with HT29 colon was 1.11 µM; in the assay with PC-3 prostate, 0.891 µM; with LOX IMVI melanoma, 1.54 µM; in the assay on HCT-15 colon, 0.871 µM; in the assay with NCI-H522 lung, 1.71 µM; with T-47D breast it was 1.72 µM. Also, the GI50 with SW-620 colon was 0.534 µM; with MDA-MB-231 breast it was 1.38 µM; in the assay with MOLT-4 leukemia, 0.42 µM; in the assay on HS 578T breast, 2.04 µM. Also, the TGI in the assay on HT29 colon worked out at 2.59 µM; with PC-3 prostate it was 2.17 µM; with LOX IMVI melanoma, 3.01 µM; in the assay on HCT-15 colon, 2.37 µM; in the assay on NCI-H522 lung, 3.4 µM; in the assay with T-47D breast it was 4.43 µM. Besides, the TGI in the assay with SW-620 colon stood at 1.95 µM; with MDA-MB-231 breast it was 2.73 µM; in the assay with MOLT-4 leukemia, 2.02 µM; in the assay with HS 578T breast, 5.97 µM.
`C=C(CO)[C@@H]1CC[C@]2(COC3CCCCO3)CC[C@]3(C)[C@H](CC[C@@H]4[C@@]5(C)C=C(C=O)C(=O)C(C)(C)[C@@H]5CC[C@]43C)[C@@H]12` (stereo not given in full): the GI50 with HT29 colon was 0.327 µM; in the assay with PC-3 prostate, 0.237 µM; in the assay with LOX IMVI melanoma, 0.191 µM; in the assay with HCT-15 colon it was 0.247 µM; in the assay on NCI-H522 lung, 0.205 µM; with T-47D breast it was 0.332 µM. Moreover, the GI50 is 0.267 µM with SW-620 colon, 0.214 µM in the assay with MDA-MB-231 breast, 0.307 µM with MOLT-4 leukemia and 0.318 µM with HS 578T breast. The TGI with HT29 colon was 1.1 µM; in the assay with PC-3 prostate, 0.973 µM; in the assay on LOX IMVI melanoma, 0.392 µM; in the assay on HCT-15 colon, 0.718 µM; with NCI-H522 lung, 0.487 µM; with T-47D breast, 1.65 µM. Also, the TGI with SW-620 colon was 0.832 µM; in the assay with MDA-MB-231 breast, 0.565 µM; with MOLT-4 leukemia, 1.21 µM; in the assay on HS 578T breast it was 0.997 µM.
Turning to `CC(C)=CCC/C(C)=C\CCC1(C)OC(=O)C2CC21` (stereo not given), the GI50 in the assay with HT29 colon is 72.8 µM and 34.1 µM; in the assay on HCT-15 colon, 83.8 µM and 24.7 µM; with NCI-H522 lung, 52.4 µM and 19.2 µM; in the assay with SW-620 colon, 84.1 µM and 33.8 µM; in the assay on HS 578T breast it was > 100 µM and 36.5 µM. Besides, the TGI with HT29 colon was > 100 µM; in the assay on PC-3 prostate, > 100 µM and 85.2 µM; in the assay on LOX IMVI melanoma, 81.8 µM and 29 µM; in the assay with HCT-15 colon, > 100 µM; in the assay on NCI-H522 lung, > 100 µM and 47.1 µM; with T-47D breast it was > 100 µM. Besides, the TGI with SW-620 colon was > 100 µM; in the assay on MDA-MB-231 breast, > 100 µM; in the assay on MOLT-4 leukemia it was 50 µM and 35 µM; in the assay on HS 578T breast, > 100 µM.
Turning to `CN(C)CCNc1c2ccccc2nc2oc3ccccc3c12`, the GI50 was 3.97 µM with HT29 colon; 3.4 µM in the assay on PC-3 prostate; 4.35 µM in the assay with LOX IMVI melanoma; 5.04 µM with HCT-15 colon; 4.6 µM in the assay on NCI-H522 lung; 4.72 µM in the assay with T-47D breast. Further, the GI50 in the assay on SW-620 colon is 3.61 µM; with MDA-MB-231 breast it was 6.47 µM; in the assay with MOLT-4 leukemia, 3 µM; in the assay with HS 578T breast it was 4.6 µM. The TGI worked out at 19.6 µM in the assay on HT29 colon; 19.5 µM in the assay on PC-3 prostate; 14.9 µM in the assay with LOX IMVI melanoma; 25 µM in the assay on HCT-15 colon; 18.3 µM in the assay on NCI-H522 lung; 26.7 µM in the assay with T-47D breast. In addition, the TGI in the assay on SW-620 colon amounted to 15.1 µM; in the assay with MDA-MB-231 breast, 27.2 µM; with MOLT-4 leukemia, 12.1 µM; in the assay on HS 578T breast it was 20.1 µM.
As for `OCCNc1nc(Nc2ccc(Cl)c(Cl)c2)nc2ccccc12`, the GI50 was 3.39 µM with HT29 colon; 4.47 µM with PC-3 prostate; 3.38 µM in the assay with LOX IMVI melanoma; 2.84 µM with HCT-15 colon; 10 µM with NCI-H522 lung; 9.65 µM in the assay with T-47D breast. In addition, the GI50 was 4.02 µM in the assay on SW-620 colon, 1.97 µM in the assay with MDA-MB-231 breast, 1.87 µM in the assay with MOLT-4 leukemia and 6.91 µM with HS 578T breast. The TGI is 12.1 µM in the assay on HT29 colon; 16.6 µM in the assay with PC-3 prostate; 11.9 µM in the assay with LOX IMVI melanoma; 9.34 µM in the assay with HCT-15 colon; 24.5 µM with NCI-H522 lung; 25.9 µM in the assay on T-47D breast. Moreover, the TGI with SW-620 colon was 16.2 µM; in the assay on MDA-MB-231 breast, 5.4 µM; in the assay on MOLT-4 leukemia, 13.2 µM; in the assay with HS 578T breast, 25.2 µM.
On to `CC(=O)c1c(CO[N+](=O)[O-])n([O-])c2ccccc2[n+]1=O`, for which the TGI in the assay with HT29 colon, in the assay on PC-3 prostate, in the assay on LOX IMVI melanoma, with HCT-15 colon, in the assay with NCI-H522 lung and in the assay with T-47D breast was > 100 µM throughout. The TGI with SW-620 colon, in the assay with MDA-MB-231 breast, with MOLT-4 leukemia and in the assay with HS 578T breast was > 100 µM in each case.
Consider `O=C1c2ccccc2-c2c1c1c(O)cccc1n2Cc1ccccn1`, for which the GI50 in the assay on HT29 colon was 88.6 µM; in the assay on PC-3 prostate it was 43.8 µM; with LOX IMVI melanoma it was 35.5 µM; in the assay with HCT-15 colon, 53.8 µM; in the assay on NCI-H522 lung it was > 100 µM; in the assay on T-47D breast, > 100 µM. In addition, the GI50 is 42 µM in the assay with SW-620 colon, 28.5 µM in the assay on MDA-MB-231 breast, 91.4 µM with MOLT-4 leukemia and 33.6 µM in the assay with HS 578T breast. Moreover, the TGI in the assay on HT29 colon, with PC-3 prostate, in the assay with LOX IMVI melanoma, with HCT-15 colon, with NCI-H522 lung and with T-47D breast was > 100 µM in each case. Besides, the TGI with SW-620 colon, in the assay with MDA-MB-231 breast, in the assay with MOLT-4 leukemia and in the assay with HS 578T breast was > 100 µM each time.
